Where a name gives a salt, the structure may show the parent alone.

One assay deals with T1, SAA binding to heparin (HS-GAG) (Homo sapiens, UniProt P0DJI8).
T1 sequence (P0DJI8 19-122): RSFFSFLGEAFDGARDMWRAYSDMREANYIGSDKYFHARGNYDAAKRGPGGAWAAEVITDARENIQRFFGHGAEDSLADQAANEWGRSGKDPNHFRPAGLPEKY
Nature of the assay: Inhibition of SAA binding to immobilized heparin-BSA (ELISA). More on the design: species or system porcine. To be noted: 30 μM compound; SAA, heparin-BSA; read-out: Serum Amyloid A/Heparin Activity (% inhibition class). As to the method: Porcine intestinal mucosa heparin conjugated to Bovine Serum Albumin (Heparin-BSA) was prepared as described (Najjam, S. et al. 1997, Cytokine 12, 1013-1022). Heparin is a sulfated HS-GAG and is commonly used as a HS-GAG in biochemical and binding assays (Lindahl, U. and Kjellen, L. (2013) ibid). Heparin-BSA at 0.01 mg/ml in Phosphate Buffered Saline (PBS; pH 7.4) was added to a 96 well polystyrene ELISA plate (NUNC Cat. No. 449824; 100 μl per well) and incubated Over Night (ON) at 4 degrees Celsius. For negative controls, ELISA plates were coated with BSA instead of Heparin-BSA, using the same procedure. Following the incubation, the plate was washed consecutively, by immersion, with de-ionized water and PBS (pH 7.4). The ELISA plate was then blocked with nonfat milk (2%, 200 μl per well) for 2 hours at Room Temperature (RT) with gentle shaking. Following blocking, the plate was washed with de-ionized water then PBS (pH 7.4). GBAPs were dissolved and diluted in PBS (pH 6.5, supplemented with 0.1% BSA) at desired concentrations, added to the ELISA plates containing immobilized Heparin-BSA (100 μl per well) and incubated for 2 hours at RT with gentle shaking. Following incubation, the plate was washed with de-ionized water and three times with PBS (pH 6.5) plus Tween. Bound GBAP was detected by a monoclonal antibody specific for that GBAP, followed by incubation with secondary antibody conjugated to horseradish peroxidase (HRP). Antibody was diluted in PBS (pH 6.5 supplemented with 1% BSA). Following each incubation with antibody, the plate was washed with de-ionized water and three times with PBS (pH 6.5) wash buffer containing 0.1% Tween. The peroxidase substrate chromogen, TMB (Dako Cat. No. S1599) was added (100 μl per well) to the ELISA plate and incubated at room temperature. After 5 minutes ELISA Stop Solution (hydrochloric acid 1N, sulfuric acid 3N) was added (100 μl per well) to stop the peroxidase catalyzed colorimetric reaction. The Optical Density of the samples was measured at 450 nm using an ELISA plate reader (BioTek Synergy H1). Following color development, the % inhibition compared to control (BSA-coated plates) was determined. IC-50s were calculated using GraphPad Prism software.
The assay was performed as described in Example 43, with the following modifications. Following to coating the plates with Heparin-BSA, plates were washed as described. The compounds were dissolved in DMSO at 10 mM final concentration and further diluted prior to assay. DMSO concentration in the screening well was up to 2%. Individual compounds were co-incubated with SAA on plates containing immobilized heparin. Serum amyloid A (SAA) from PeProtech (NJ, USA, Cat. No. 300-53) was dissolved in DMSO, quickly frozen and kept in aliquots at −80 degrees Celsius. SAA dissolved in Tris buffer (pH 6.5, supplemented with BSA, 0.1%) was added to the ELISA plate (100 μl per well) and incubated for 2 hours at RT with gentle shaking. Following the incubation, the plate was washed with de-ionized water and three times with Tris Buffered Saline (TBS, pH 6.5) plus Tween. Bound SAA was detected by Anti-SAA Monoclonal Antibody (R&D System Cat. No. MAB30192), followed by secondary anti-IgG antibody conjugated to HRP (R&D System, Cat. No. HAF007). Antibody was diluted in TBS antibody buffer (pH6.5 supplemented with 1% BSA). Following each incubation with antibody, the plate was washed with de-ionized water and three times with TBS (pH6.5) wash buffer containing 0.1% Tween. Following to color development with TMB, as described in Example 43, the Optical Density of the samples was measured at 450 nm using an ELISA plate reader. Following color development, the % inhibition compared to control (no compound, DMSO control) for every compound was determined.
As described in Example 43, Heparin in the form of Heparin-BSA conjugate is used as a source of HS-GAG. For each compound IC-50 value in SAA—heparin-BSA binding assay is shown in μM (micromolar). […]
Regarding `CN1CCN(Cc2ccc(/C=N/Nc3ccnc4cc(Cl)ccc34)cc2)CC1` [Compound 7, (E)-7-chloro-4-(2-(4-((4-methylpiperazin-1-yl)methyl)benzylidene)hydrazinyl)quinolone], the inhibition at 30 µM is over 30%. Still for that read-out and setting: to `CCN(CC)Cc1cccc(Nc2ccnc3cc(Cl)ccc23)c1` [Compound 42, 7-chloro-N-(3-((diethylamino)methyl)phenyl)quinolin-4-amine] belongs under 30%; to `CCN1CCN(c2ccc(Nc3ccnc4cc5ccccc5cc34)cc2)CC1` [Compound 39, N-(4-(4-ethylpiperazin-1-yl)phenyl)benzo[g]quinolin-4-amine], over 30%.

The same assay, now with this note: SAA, heparin-BSA; hydrochloride; read-out: Serum Amyloid A/Heparin Activity (IC-50).
With `C/C(=N\Nc1ncnc2cc(Cl)ccc12)c1ccc(-n2cc(C)nc2C)nc1` [Compound 27, (E)-7-chloro-4-(2-(1-(6-(2,4-dimethyl-1H-imidazol-1-yl)pyridin-3-yl)ethylidene)hydrazineyl)quinazoline hydrochloride], the IC50 worked out at 24.7 µM.

The same assay, now with this note: SAA, heparin-BSA; read-out: Serum Amyloid A/Heparin Activity (IC-50).
For the compound `Clc1ccc2c(Nc3ccc(-n4ccnc4)nc3)ncnc2c1` [Compound 41, N-(6-(1H-imidazol-1-yl)pyridin-3-yl)-7-chloroquinazolin-4-amine], the IC50 was found to be 12.2 µM. Same read-out and setting: with `Cc1cc(-n2ccnc2)ccc1/C=N/Nc1ccnc2cc(Cl)ccc12` [Compound 1, (E)-4-((E)-(4-(1H-imidazol-1-yl)-2-methylbenzylidene)hydrazono)-7-chloro-1,4-dihydroquinoline] the figure was 8.16 µM.

Staying with this assay, now noted: read-out: Serum Amyloid A/Heparin Activity (% inhibition class).
In the case of `Clc1ccc2c(N/N=C/c3ccc(-n4cccn4)cc3)ccnc2c1` [Compound 3, (E)-4-((E)-(4-(1H-pyrazol-1-yl)benzylidene)hydrazono)-7-chloro-1,4-dihydroquinoline], the inhibition at 30 µM was over 30%. As for `C(=N\Nc1ccc2c3c(cccc13)CC2)/c1ccc(-n2ccnc2)cc1` [Compound 8, (E)-1-(4-((2-(1,2-dihydroacenaphthylen-5-yl)hydrazineylidene)methyl)phenyl)-1H-imidazole], the inhibition at 30 µM was under 30%. In the case of `CC(=NNc1ccnc2cc(Cl)ccc12)c1ccc(-n2cc[n+](C)c2)nc1` [Compound 23, 1-(5-(1-(2-(7-chloroquinolin-4-yl)hydrazineylidene)ethyl)pyridin-2-yl)-3-methyl-1H-imidazol-3-ium iodide], the inhibition at 30 µM is under 30%. Same read-out and setting: with `Cc1ncn(-c2ncc(Nc3ncnc4cc(Cl)ccc34)cc2O)c1C` [Compound 40, 5-((7-chloroquinazolin-4-yl)amino)-2-(4,5-dimethyl-1H-imidazol-1-yl)pyridin-3-ol phosphoric acid salt] the figure was over 30%.

The assay is the same for the next values; noted with them: read-out: Serum Amyloid A/Heparin Activity (IC-50); SAA, heparin-BSA.
For the compound `Clc1ccc2c(N/N=C/c3ccc(-n4ccnc4)cc3)ccnc2c1` [Compound 38, 4-(2-(4-(1H-imidazol-1-yl)benzylidene)hydrazineyl)-7-chloroquinoline dihydrochloride], the IC50 is 14.9 µM. Still for that read-out and setting: with `Fc1cc(/C=N/Nc2ccnc3cc(Cl)ccc23)ccc1-n1ccnc1` [Compound 35, (E)-7-chloro-4-(2-(3-fluoro-4-(1H-imidazol-1-yl)benzylidene)hydrazineyl)quinoline hydrochloride] the figure was 31.8 µM.

Regarding `CC(=NNc1ccnc2cc(Cl)ccc12)c1ccc(-n2cnc(C)c2C)nc1` [Compound 22, 7-chloro-4-(2-(1-(6-(4,5-dimethyl-1H-imidazol-1-yl)pyridin-3-yl)ethylidene)hydrazineyl)quinoline], the IC50 stood at 83.2 µM. The same measure, in the same setting: with `Fc1ccc2c(N/N=C/c3ccc(-n4ccnc4)cc3)ccnc2c1` [Compound 5, (E)-4-(2-(4-(1H-imidazol-1-yl)benzylidene)hydrazinyl)-7-fluoroquinoline] the figure was 24 µM; with `CN(C)Cc1cc(Nc2ccnc3cc(Cl)ccc23)ccn1` [Compound 45, 7-chloro-N-(2-((dimethylamino)methyl)pyridin-4-yl)quinolin-4-amine], 63.5 µM. Same read-out and setting: to `C/C(=N\Nc1ncnc2ccccc12)c1ccc(-n2cc(C)nc2C)nc1` [Compound 19, (E)-4-(2-(1-(6-(2,4-dimethyl-1H-imidazol-1-yl)pyridin-3-yl)ethylidene)hydrazineyl)quinazoline] belongs 8.59 µM.
